Counter-ions that a name gives are not always drawn.
What follows are compounds tested on L-687,414-induced hyperlocomotion (assay: Reversal of L-687,414-induced hyperlocomotion (Digiscan locomotor activity)). Settings: Mus musculus, 0.5 h; dose ip 30 mg/kg at the same time as s.c. 50 mg/kg L-687,414; horizontal activity over 30 min.
Assay type: in vivo, mouse
Description: The authors described that hyperlocomotion induced by L-687,414 was inhibited by a series of known antipsychotic drugs. […] These findings predict antipsychotic activity for the present compounds, making them useful for the treatment of positive (psychosis) and negative symptoms of schizophrenia, substance abuse, alcohol and drug addiction, obsessive-compulsive disorders, cognitive impairment, bipolar disorders, mood disorders, major depression, resistant depression, anxiety disorders, Alzheimer's disease, autism, Parkinson's disease, chronic pain, borderline personality disorder, sleep disturbances, chronic fatigue syndrome, stiffness, antiinflammatory effects in arthritis and balance problems.
The described compounds of formula I reduce L-687,414-induced hyperlocomotion. This was assessed by using a computerized Digiscan 16 Animal Activity Monitoring System (Omnitech Electronics, Columbus, Ohio) to quantify locomotor activity. Animals were kept under a 12 h light/dark cycle and experiments were performed during the light period. Each activity monitoring chamber consisted of a Plexiglas box (41×41×28 cm; W×L×H) with sawdust bedding on the floor surrounded by invisible horizontal and vertical infrared sensor beams. The test boxes were divided by a Plexiglas cross providing each mouse with 20×20 cm of moving space. Cages were connected to a Digiscan Analyzer linked to a computer that constantly collected the beam status information. Records of photocell beam interruptions for individual animals were taken every 5 min over the duration of the experimental session and the sum of the first 6 periods was used as the final parameter. Compounds were administered either p.o. 15 min before a s.c. injection of 50 mg/kg of L-687,414, or i.p. at the same time as a s.c. injection of 50 mg/kg of L-687,414. Mice were then transferred from their home cage to the recording chambers for a 15-min habituation phase allowing free exploration of the new environment. Horizontal activity was then recorded for a 30-min time period. The % inhibition of L-687,414-induced hyperlocomotion was calculated according to the equation: ((Veh+L-687,414 horizontal activity−drug+L-687,414 horizontal activity)/Veh+L−687,414 horizontal activity)×100
ID50 values, defined as doses of each compound producing 50% inhibition of L-687,414-induced hyperlocomotion, were calculated by linear regression analysis of a dose-response data using an Excel-based computer-fitting program.
As data was not presupposed to be normally distributed, groups treated with test compounds were statistically compared with the control (vehicle-treated) group using one-tailed Mann Whitney U tests. In statistics, the Mann-Whitney U test (also called the Mann-Whitney-Wilcoxon (MWW) or Wilcoxon rank-sum test) is a non-parametric statistical hypothesis test for assessing whether one of two samples of independent observations tends to have larger values than the other. It is one of the most well-known non-parametric significance tests. […] P values given in table 1 are one-tailed since only decreases in locomotion were expected and tested for (Mann, H. B., Whitney, D. R. (1947), “On a Test of Whether one of Two Random Variables is Stochastically Larger than the Other”, Annals of Mathematical Statistics, 18 (1), 50-60).
`Cc1cccc(-n2cnc(-c3ccc4c(c3)NC(=O)C4(C)C)c2)n1` [Example 123, 3,3-Dimethyl-6-(1-(6-methylpyridin-2-yl)-1H-imidazol-4-yl)indolin-2-one] gave an inhibition in vivo at 30 mg/kg of 30.6%.
With `Cc1cc(-c2cnn(-c3ccc4c(c3)N(C)C(=O)C4(C)C)c2)ccn1` [Example 54, 1,3,3-Trimethyl-6-(4-(2-methylpyridin-4-yl)-1H-pyrazol-1-yl)indolin-2-one] the inhibition in vivo at 30 mg/kg was 41.6%.
`COc1cnccc1-c1ncc(-c2ccc3c(c2)NC(=O)C3(C)C)o1` [Example 63, 6-(2-(3-Methoxypyridin-4-yl)oxazol-5-yl)-3,3-dimethylindolin-2-one] showed an inhibition in vivo at 30 mg/kg of 75%.
`CN1C(=O)C(C)(C)c2ccc(-c3coc(-c4cccnc4)n3)cc21` [Example 44, 1,3,3-Trimethyl-6-(2-(pyridin-3-yl)oxazol-4-yl)indolin-2-one] showed an inhibition in vivo at 30 mg/kg of 52.1%.
For `CN1C(=O)C(C)(C)c2ccc(-n3cc(-c4cccnc4)cn3)cc21` [Example 41, 1,3,3-Trimethyl-6-(4-(pyridin-3-yl)-1H-pyrazol-1-yl)indolin-2-one], the inhibition in vivo at 30 mg/kg was 50.3%.
Work on `CN1C(=O)C(C)(C)c2ccc(-c3cnc(-c4ccncc4)[nH]3)cc21` [Example 3, 1,3,3-Trimethyl-6-(2-(pyridin-4-yl)-1H-imidazol-5-yl)indolin-2-one] yielded an inhibition in vivo at 30 mg/kg of 58.9%.
With `Cc1cc(-n2cnc(-c3ccc4c(c3)N(c3cn(C)cn3)C(=O)C4(C)C)c2)ccn1` [Example 111, 3,3-Dimethyl-1-(1-methylimidazol-4-yl)-6-[1-(2-methyl-4-pyridyl)imidazol-4-yl]indolin-2-one] the inhibition in vivo at 30 mg/kg was 55.1%.
`CC1(C)C(=O)N(C2CC2)c2cc(-c3cnc(-c4cccnc4)o3)ccc21` [Example 8, 1-Cyclopropyl-3,3-dimethyl-6-(2-(pyridin-3-yl)oxazol-5-yl)indolin-2-one] was tested, and the inhibition in vivo at 30 mg/kg was 80.5%.
Work on `Cc1cc(-n2cnc(-c3ccc4c(c3)N(C3CC3)C(=O)C4(C)C)c2)ccn1` [Example 74, 1-Cyclopropyl-3,3-dimethyl-6-(1-(2-methylpyridin-4-yl)-1H-imidazol-4-yl)indolin-2-one] yielded an inhibition in vivo at 30 mg/kg of 71.4%.
`Cc1cnccc1-n1cnc(-c2ccc3c(c2)N(C)C(=O)C3(C)C)c1` [Example 88, 1,3,3-Trimethyl-6-(1-(3-methylpyridin-4-yl)-1H-imidazol-4-yl)indolin-2-one] was tested, and the inhibition in vivo at 30 mg/kg was 93.1%.
With `Cc1ccc(-c2cc(-c3ccc4c(c3)N(C)C(=O)C4(C)C)n[nH]2)cn1` [Example 80, 1,3,3-Trimethyl-6-(5-(6-methylpyridin-3-yl)-1H-pyrazol-3-yl)indolin-2-one] the inhibition in vivo at 30 mg/kg was 62.6%.
In the case of `Cc1cnccc1-n1cnc(-c2ccc3c(c2)N(c2ccn(C)n2)C(=O)C3(C)C)c1` [Example 115, 3,3-Dimethyl-1-(1-methylpyrazol-3-yl)-6-[1-(3-methyl-4-pyridyl)imidazol-4-yl]indolin-2-one], the inhibition in vivo at 30 mg/kg is reported as 74.1%.
`CN1C(=O)C(C)(C)c2ccc(-n3cnc(-c4ccncc4)c3)cc21` [Example 20, 1,3,3-Trimethyl-6-(4-(pyridin-4-yl)-1H-imidazol-1-yl)indolin-2-one] showed an inhibition in vivo at 30 mg/kg of 64.4%.
With `Cc1cc(-n2cnc(-c3ccc4c(c3)NC(=O)C4(C)C)c2)c(F)cn1` [Example 132, 6-[1-(5-Fluoro-2-methyl-4-pyridyl)imidazol-4-yl]-3,3-dimethyl-indolin-2-one trifluoroacetate] the inhibition in vivo at 30 mg/kg was 71.1%.
Compound `CN1C(=O)C(C)(C)c2ccc(-c3cnc(-c4cccnc4)o3)cc21` [Example 7, 1,3,3-Trimethyl-6-(2-(pyridin-3-yl)oxazol-5-yl)indolin-2-one] has an inhibition in vivo at 30 mg/kg of 83.9%.
For `Cc1nc(-c2ccc3c(c2)N(C)C(=O)C3(C)C)cn1-c1ccncc1` [Example 77, 1,3,3-Trimethyl-6-(2-methyl-1-(pyridin-4-yl)-1H-imidazol-4-yl)indolin-2-one], the inhibition in vivo at 30 mg/kg was 89.4%.
For `Cc1cnc(-n2cnc(-c3ccc4c(c3)N(C3CC3)C(=O)C4(C)C)c2)nc1` [Example 118, 1-Cyclopropyl-3,3-dimethyl-6-(1-(5-methylpyrimidin-2-yl)-1H-imidazol-4-yl)indolin-2-one], the inhibition in vivo at 30 mg/kg was 50.3%.
`CC1(C)C(=O)N(C2COC2)c2cc(-c3nnc(-c4ccncc4)o3)ccc21` [Example 11, 3,3-Dimethyl-1-(oxetan-3-yl)-6-(5-(pyridin-4-yl)-1,3,4-oxadiazol-2-yl)indolin-2-one] was tested, and the inhibition in vivo at 30 mg/kg was 80.9%.
Work on `CC1(C)C(=O)N(C2COC2)c2cc(-n3cc(-c4cccnc4)cn3)ccc21` [Example 43, 3,3-Dimethyl-1-(oxetan-3-yl)-6-(4-(pyridin-3-yl)-1H-pyrazol-1-yl)indolin-2-one] yielded an inhibition in vivo at 30 mg/kg of 47.3%.
`Cc1ccc(N2C(=O)C(C)(C)c3ccc(-c4cn(-c5ccncc5C)cn4)cc32)cn1` [Example 105, 3,3-Dimethyl-1-(6-methyl-3-pyridyl)-6-[1-(3-methyl-4-pyridyl)imidazol-4-yl]indolin-2-one] was tested, and the inhibition in vivo at 30 mg/kg was 40.6%.
Compound `Cc1cnc(-n2cnc(-c3ccc4c(c3)N(C)C(=O)C4(C)C)c2)nc1` [Example 119, 1,3,3-Trimethyl-6-(1-(5-methylpyrimidin-2-yl)-1H-imidazol-4-yl)indolin-2-one] has an inhibition in vivo at 30 mg/kg of 48.1%.
`CC1(C)C(=O)Nc2cc(-n3cc(-c4cccnc4)cn3)ccc21` [Example 51, 3,3-Dimethyl-6-(4-(pyridin-3-yl)-1H-pyrazol-1-yl)indolin-2-one] gave an inhibition in vivo at 30 mg/kg of 61%.
In the case of `Cc1cnccc1-n1cnc(-c2ccc3c(c2)N(c2cn(C)cn2)C(=O)C3(C)C)c1` [Example 114, 3,3-Dimethyl-1-(1-methylimidazol-4-yl)-6-[1-(3-methyl-4-pyridyl)imidazol-4-yl]indolin-2-one], the inhibition in vivo at 30 mg/kg is reported as 64.9%.
With `Cc1cc(-n2cnc(-c3ccc4c(c3)N(c3ccn(C)n3)C(=O)C4(C)C)c2)ccn1` [Example 112, 3,3-Dimethyl-1-(1-methylpyrazol-3-yl)-6-[1-(2-methyl-4-pyridyl)imidazol-4-yl]indolin-2-one] the inhibition in vivo at 30 mg/kg was 52.5%.

Same assay, conditions: dose ip 30 mg/kg at the same time as s.c. 50 mg/kg L-687,414; horizontal activity over 30 min
For “1,3,3-Trimethyl-6-(4-(pyridin-3-yl)-1H-imidazol-1-yl)indolin-2-one [Example 29]”, the “Inhibition, ip” value was 80.3%.
For “6-[1-(3-Fluoro-4-pyridyl)imidazol-4-yl]-3,3-dimethyl-1-(2-methylpyrimidin-5-yl)indolin-2-one [Example 110]”, the “Inhibition, ip” value was 85.4%.
“3,3-Dimethyl-6-[1-(2-methyl-4-pyridyl)imidazol-4-yl]-1-(2-methylpyrimidin-5-yl)indolin-2-one [Example 113]” was tested, and the “Inhibition, ip” value was 69.9%.
For “1-Cyclopropyl-3,3-dimethyl-6-(2-(2-methylpyridin-4-yl)oxazol-5-yl)indolin-2-one [Example 12]”, the “Inhibition, ip” value was 49.1%.

Same assay, conditions: dose producing 50% inhibition of L-687,414-induced hyperlocomotion; p.o. 15 min before s.c. 50 mg/kg L-687,414; doses 1-3-10 (Expl. 2: 3-10-30) mg/kg
Work on `CN1C(=O)C(C)(C)c2ccc(-c3ncc(-c4ccccc4)[nH]3)cc21` [Example 2, 1,3,3-Trimethyl-6-(5-phenyl-1H-imidazol-2-yl)indolin-2-one] yielded an ID50 po of 10.71 mg/kg.
Work on `CN1C(=O)C(C)(C)c2ccc(-c3cn(-c4ccncc4F)cn3)cc21` [Example 73, 6-(1-(3-Fluoropyridin-4-yl)-1H-imidazol-4-yl)-1,3,3-trimethylindolin-2-one] yielded an ID50 po of 2.97 mg/kg.
For `Cc1cc(-c2nnc(-c3ccc4c(c3)N(C3COC3)C(=O)C4(C)C)o2)ccn1` [Example 49, 3,3-Dimethyl-6-(5-(2-methylpyridin-4-yl)-1,3,4-oxadiazol-2-yl)-1-(oxetan-3-yl)indolin-2-one], the ID50 po was 5.02 mg/kg.

From patent US10385050B2, “Indolin-2-one and 1,3-dihydro-pyrrolo[3,2-c]pyridin-2-one derivatives” (Hoffmann-La Roche Inc., priority 2014, dated 2019)
